According to ChEMBL document CHEMBL3751735, “Discovery of 2-(4-sulfonamidophenyl)-indole 3-carboxamides as potent and selective inhibitors with broad hepatitis C virus genotype activity targeting HCV NS4B” (Bioorg Med Chem Lett, 2016):

What was measured:
[1] = system: Hepatitis C virus; test: Antiviral activity against HCV genotype 1b Con1 bicistronic replicon infected in human Huh7 cells assessed as replicon RNA expression measured 3 days post dose by real time RT-PCR analysis; assay type: functional, organism-based, Hepacivirus hominis; conditions: isolate Con1, Huh-7, 72 h
[2] = Toxicity against human HuH7 cells harboring HCV genotype 1b bicistronic replicon assessed as inhibition of GAPDH mRNA expression measured 3 days post dose by real time RT-PCR analysis; assay type: cell-based, Huh-7
[3] = system: Hepatitis C virus; test: Antiviral activity against HCV genotype 2a JFH-1 infected in human HuH7.5 cells assessed as HCV RNA expression measured 72 hrs post dose by qRT-PCR analysis; assay type: functional, organism-based, Hepacivirus hominis; conditions: JFH-1, Huh-7, 72 h
[4] = system: Hepatitis C virus; test: Antiviral activity against HCV genotype 3a S52/SG-Feo(SH) infected in human HuH7.5 cells measured 3 days post dose by Luciferase assay; assay type: functional, organism-based, Hepacivirus hominis; conditions: Huh-7, 72 h
[5] = system: Hepatitis C virus; test: Antiviral activity against HCV genotype 1a H77S bicistronic replicon infected in human Huh7 cells assessed as replicon RNA expression measured 3 days post dose by real time RT-PCR analysis; assay type: functional, organism-based, Hepacivirus hominis; conditions: Huh-7, 72 h
[6] = Ratio of drug level in liver to plasma in Sprague-Dawley rat at 10 mg/kg, po measured 6 hrs post dose; assay type: ADME, organism-based; conditions: liver and plasma
[7] = AUC (0 to 6 hrs) in Sprague-Dawley rat plasma at 10 mg/kg, po measured at 30 mins to 6 hrs post dose; assay type: ADME, organism-based; design: dose 10 mg/kg, time < 6 hr, route oral
[8] = system: Hepatitis C virus; test: Antiviral activity against HCV genotype 1b harboring NS4B F98C mutant relative to wild type HCV genotype 1b; assay type: functional, Hepacivirus hominis
[9] = system: Hepatitis C virus; test: Antiviral activity against HCV genotype 1b harboring NS4B V105M mutant relative to wild type HCV genotype 1b; assay type: functional, Hepacivirus hominis

SMILES	EC50 [1]	IC50 at 3 days [2]	EC50 [3]	EC50 [4]	EC50 [5]	Kp at 6 h [6]	AUC(0-t) at 6 h [7]	fold change (FC) [8]	fold change (FC) [9]
Cc1cc(F)c2c(C(N)=O)c(-c3ccc(NS(=O)(=O)C(C)(C)C)cc3)n(C3CCCC3)c2c1	0.034 µM	> 10 µM							
Cc1cc2c(cc1F)c(C(N)=O)c(-c1ccc(NS(=O)(=O)C(C)(C)C)cc1)n2C1CCC1	0.045 µM	> 10 µM	0.01 µM	0.348 µM	0.09 µM	15	1.45 µM·h		
CCOc1cc2c(cc1F)c(C(N)=O)c(-c1ccc(NS(=O)(=O)C(C)(C)C)cc1)n2C1CCCC1	0.15 µM	> 10 µM							
Cc1cc2c(cc1F)c(C(N)=O)c(-c1ccc(NS(=O)(=O)C(C)(C)C)cc1)n2-c1ccncc1	0.068 µM	> 10 µM							
Cc1cc(-c2c(C(N)=O)c3cc(F)c(OC(F)F)cc3n2C2CCCCC2)ccc1NS(=O)(=O)C(C)(C)C	0.036 µM	> 1 µM							
Cc1cc2c(cc1F)c(C(N)=O)c(-c1ccc(NS(=O)(=O)C(C)(C)C)cc1)n2C1CCCCC1	0.002 µM	> 10 µM	0.135 µM	0.08 µM	0.008 µM	11	0.685 µM·h		
CCCc1cc2c(cc1F)c(C(N)=O)c(-c1ccc(NS(=O)(=O)C(C)(C)C)cc1)n2C1CCCC1	1.8 µM	10 µM							
Cc1cc2c(cc1F)c(C(N)=O)c(-c1ccc(NS(=O)(=O)C(C)C)cc1)n2C1CCCC1	0.056 µM	> 10 µM							
CCCS(=O)(=O)Nc1ccc(-c2c(C(N)=O)c3cc(F)c(C)cc3n2C2CCCC2)cc1	0.87 µM	> 10 µM							
CCc1cc2c(cc1F)c(C(N)=O)c(-c1ccc(NS(=O)(=O)C(C)(C)C)nc1)n2C1CCCCC1	0.019 µM	> 10 µM							
CC(C)(C)S(=O)(=O)Nc1ccc(-c2c(C(N)=O)c3cc(F)c(OC(F)F)cc3n2C2CCCCC2)cc1	0.002 µM	> 10 µM	0.035 µM	0.003 µM	0.001 µM	25	0.831 µM·h	>=22	>55
CC(C)(C)S(=O)(=O)Nc1ccc(-c2c(C(N)=O)c3cc(F)c(OC(F)F)cc3n2-c2ccccc2)cc1	0.002 µM	> 1.1 µM	0.062 µM	0.012 µM	0.002 µM	26	14.4 µM·h		
CC(C)(C)S(=O)(=O)Nc1ccc(-c2c(C(N)=O)c3cc(F)c(OC(F)F)cc3n2C2CCCCC2)c(F)c1	0.002 µM	> 10 µM	0.023 µM	0.0004 µM	0.002 µM	70	3.09 µM·h		
Cc1cc(NS(=O)(=O)C(C)(C)C)ccc1-c1c(C(N)=O)c2cc(F)c(OC(F)F)cc2n1C1CCCC1	0.014 µM	9.1 µM							
CCc1cc2c(cc1F)c(C(N)=O)c(-c1ccc(NS(=O)(=O)C(C)(C)C)cn1)n2C1CCCCC1	0.068 µM	> 10 µM							
CC(C)(C)S(=O)(=O)Nc1ccc(-c2c(C(N)=O)c3cc(F)c(C4CC4)cc3n2C2CCCC2)cc1	0.013 µM	> 10 µM							
Cc1cc2c(cc1F)c(C(N)=O)c(-c1ccc(NS(=O)(=O)C(C)(C)C)cc1)n2-c1ccccc1	0.014 µM	> 10 µM	0.09 µM	0.374 µM	0.18 µM	24	14.9 µM·h		
Cc1cc2c(cc1F)c(C(N)=O)c(-c1ccc(NS(=O)(=O)C(C)(C)C)cc1)n2-c1ccc(Cl)cc1	0.043 µM	> 10 µM							
CC(C)(C)S(=O)(=O)Nc1ccc(-c2c(C(N)=O)c3cc(F)c(OC(F)F)cc3n2-c2ccccc2)c(F)c1	0.002 µM	> 10 µM	0.037 µM	0.004 µM	0.003 µM	57	7.93 µM·h		
CC(C)(C)S(=O)(=O)Nc1ccc(-c2c(C(N)=O)c3cc(F)c(OC(F)F)cc3n2C2CCCC2)c(Cl)c1	0.002 µM	4.5 µM	0.03 µM	0.058 µM	0.007 µM	65	9.96 µM·h		
